Reference: patent US20190284192A1, “NITROGENOUS MACROCYCLIC COMPOUND, PREPARATION METHOD THEREFOR, PHARMACEUTICAL COMPOSITION AND APPLICATION THEREOF” (LUOXIN PHARMACEUTICAL (SHANGHAI) CO., LTD., priority 2016, published 2019)

Key:
[1] = Metabolic stability in human liver microsomes; format: in vitro ADME; settings: human liver microsomes 0.5 mg/mL, NADPH, 37° C.; for CLint scaled at 1 µM: pH 7.4, read-out: HLM_CLint
Protocol: (§1) Determinations of the metabolic stability of the compound from the above embodiments, the detailed operation steps are as followed:
(§2) 1. Preparation of buffer C:
(§3) Buffer A: 1.0 L of 0.1 M potassium dihydrogen phosphate buffer (containing 1.0 mM EDTA);
(§4) Buffer B: 1.0 L of 0.1 M dipotassium hydrogen phosphate buffer (containing 1.0 mM EDTA);
(§5) Buffer C: 500 mL Buffer B was titrated with Buffer A to pH 7.4.
(§6) 2. 10 mM stock solution preparation:
(§7) 10 mM test compound: A certain amount of the test compound was weighed and dissolved in DMSO.
(§8) 10 mM control: 5.455 mg of ketanserin dissolved in 1 mL DMSO.
(§9) 3. Preparation of the drug solution:
(§10) 500 μM solution: 5 μL of 10 mM stock solution (see step 2) was added into 95 μL ACN;
(§11) 1.5 μM dosing solution (dissolved in liver microsome solution):
(§12) 18.75 μL of 20 mg/mL liver microsomes was added into 479.75 μL of Buffer C, then 1.5 μL of 500 μM solution was added and mixed gently by shaking.
(§13) 4. Preparation of 6 mM NADPH solution:
(§14) 15 mg NADPH was weighted, then added into 3 mL of buffer C to prepare a 6 mM NADPH solution.
(§15) 5. 30 µL of 1.5 μM dosing solution (see step 3) was added into the wells of the 96-well plate set at different time points (0 minutes, 5 minutes, 15 minutes, 30 minutes, 45 minutes), number of dulplicate sample is 2.
(§16) 6. Preparation of a 0 minutes sample: 135 μL ACN (with internal standard) was added to the 0 minutes well, followed by 15 µL of 6 mM NADPH solution.
(§17) 7. The 96-well plate containing 1.5 μM dosing solution and NADPH solution were preheated in a 37° C. water bath for 5 minutes.
(§18) 8. The 15 µL of 6 mM NADPH solution preheated was added into the wells set to 5 minutes, 15 minutes, 30 minutes, 45 minutes, then the reaction was initiated and started counting the time.
(§19) 10. The sample was vortexed for 10 min, and then centrifuged for 15 minutes on a centrifuge (Thermo Multifuge×3R) using 5594×g.
(§20) 11. 50 μL of the supernatant was taken from the centrifuged sample, transferred to a 96-well sample plate to which 100 μL of ultrapure water had already been added, mixed, and finally sent to LC-MS/MS for analysis.
(§21) Half time (T1/2)=0.693/K (K is the rate constant obtained by linear regression of the logarithm of the concentration as vertical coordinates and the culturing time as the abscissa)
(§22) 2. According to the equation formula bellow, Excel was used to plot the compound content versus reaction time, as well as half life calculation (min)
(§23) Y=(Y0−Plateau)×e^(−K*X)+Plateau
(§24) Y0 represents the compound content at 0 minutes; Y represents the compound content; X represents the time point; K represents degration rate constant of the compound; Plateau represents the lowest possible content of the compound (defined herein as 0).

SU-DHL-6 cells = assay: Inhibitory effect on SU-DHL-6 cells (CellTiter-Glo); format: cell-based; settings: Homo sapiens; 72 hours, CellTiter-Glo; read-out: SU-DHL-6
Protocol: Determinations of the inhibition of the compounds from the above embodiments against SU-DHL-6 cells, the detailed operation steps are as followed:
The 1st Day: Seed the Cells on the Plate
1. The cells were verified that they were in good conditions by observation under microscope;
2. The cells were transferred to a centrifuge tubes, after centrifuged at 1000 rpm for 5 min, the supernatant was discarded;
3. The complete substrate (1640+10% FBS) was added, then blown and patted into single cell suspension, counted by Vi-cell cytometer, the cell suspension was adjusted to desired cell density by the complete medium.
4. The cells were inoculated into a 96 well plate, the cell number was 12000/well at 100 μL per well, 100 μL complete medium was added into the black control;
5. 37° C., 5% CO2 culture overnight.
The 2nd Day: Addition of the Drugs
1. 1000× Compound Plate Preparation
1.1. The test compound was prepared into 10 mM working solution by using DMSO. Then the STS was prepared into 2 mM working solution by using DMSO.
1.2. In the round bottom 96 wells plate, the column 2 of row A to H was added into 60 μL 10 mM test compound (or STS) working solution, columns 3-11 were added into 40 μL DMSO, 20 μL drug solution was pipetted from the column 2 to the column 3, blown and patted for a homogeneous mixture; then 20 μL solution was pipetted from the column 3 to the column 4, blown and patted for a homogeneous mixture, sequently, the drug was diluted by 3 times, 10 concentrations in total. The columns 1 and 12 were supplemented with 40 μL of DMSO.
2. Intermediate plate preparation
A sterile V-bottom 96 deep well plate was used and in each well, 495 μL FBS-free PRMI 1640 medium was added, then 5 μL of the diluted compound (or DMSO) in the 1000× compound plate was pipetted into corresponding position of the V-bottom 96 well plate, blown and patted evenly.
3.1. The cell plate was taken out from the incubator and was observed under microscope. The diluted compound or DMSO in the intermediate plate was added into the cell plate, 11 μL each well.
3.2. The cell was continued to be cultured at 37° C., 5% CO2 for 72 hours.
The 5th Day: CellTiter-Glo Detection of the Cell Activity
1. The CellTiter-Glo buffer and the reaction substrate were taken out from the refrigerator, after balanced to r.t., the buffer was poured into a brown bottle containing the substrate, the bottle was upside down to have the substrate powder sufficientaly dissolved.
2. The cell was observed under microscope; the cell plate was balanced to r.t.
3. The prepared CellTiter-Glo was added into the 96 well plate, at 100 μL/well.
4. The cell plate was placed on a shaker for 10 min, followed by standing at r.t. for 10 min.
5. A white seal film was attached to the bottom of the well plate, and the chemiluminescence signal of each well was detected by the Enspire microplate detector.
6. XLfit was used for data processing. Inhibition rate %=(d-c)/(d-b)×100, while d is the signal value of the DMSO treated group, c is the signal value of the compound treated group, b is signal value of the blank control that only containing medium and DMSO without cells. The data was fitted using the f (x)205[fit=(A+((B−A)/(1+((C/x)^∧D))))] equation in the XLfit software.

MV-4-11 cells = assay: Inhibitory effect on MV-4-11 cells (CellTiter-Glo); format: cell-based; settings: Homo sapiens, MV4-11; 72 hours, CellTiter-Glo; read-out: MV-4-11
BRD4 (BD2) = target: T1, BRD4 (BD2) (Homo sapiens, UniProt O60885); assay: BRD4 (BD2) bromodomain binding, HTRF; settings: 2 h incubation at r.t.
T1 construct: Each member comprises two tandem bromodomains (BD1 and BD2) for recognizing the acetylated lysine residues

BRD4 (BD1) = target: T2, BRD4 (BD1) (Homo sapiens, UniProt O60885); assay: BRD4 (BD1) bromodomain binding, HTRF; settings: 2 h incubation at r.t.
T2 construct: Each member comprises two tandem bromodomains (BD1 and BD2) for recognizing the acetylated lysine residues

[2] = Metabolic stability in mouse liver microsomes; format: in vitro ADME; settings: mouse liver microsomes 0.5 mg/mL, NADPH, 37° C.; for CLint scaled at 1 µM: pH 7.4, read-out: MLM_CLint
Protocol: as §1, §2, §3, §4, §5, §6, §7, §8, §9, §10, §11, §12, §13, §14, §15, §16, §17, §18, §19, §20, §21, §22, §23, §24

Row | Compound | HLM_T1/2 [1] | IC50 (SU-DHL-6 cells) | IC50 (MV-4-11 cells) | IC50 (BRD4 (BD2)) | IC50 (BRD4 (BD1)) | MLM_T1/2 [2] | CLint scaled at 1 µM [2] | CLint scaled at 1 µM [1]
1 | Cn1cc2c(cc1=O)CN=C(c1ccc(F)cc1)c1ccc(CS(C)(=O)=O)cc1-2 [Compound 4007, 7-(4-Fluorophenyl)-2-methyl-10-(methylsulfonemethyl)-2H-benzo[c]pyrido[3,4-e]azepin-3(5H)-ketone] | ∞ | 253 nM | 118 nM | 7 nM | 6 nM | 815.54 min | 6.69 mL/min/kg | –
2 | Cn1cc2c(c1C(N)=O)CCN(c1ccc(F)cc1)c1ccc(CS(C)(=O)=O)cc1-2 [Compound 4002, 6-(4-fluorophenyl)-2-methyl-9-(methylsulfonylmethyl)-2,4,5,6-tetrahydrobenzo[b]pyrrolo[3,4-d]azepin-3-carboxamide] | 38.19 min | 1930 nM | 1120 nM | 47 nM | 26 nM | 23.42 min | 233 mL/min/kg | 45.5 mL/min/kg
3 | Cn1cc2c(c1C(N)=O)CC(=O)N(c1ccc(F)cc1)c1ccc(CS(C)(=O)=O)cc1-2 [Compound 4001, 6-(4-fluorophenyl)-2-methyl-9-(methylsulfonemethyl)-5-oxo-2,4,5,6-tetrahydrobenzo[b]pyrrolo[3,4-d]azepin-3-carboxamide] | – | 2000 nM | 1440 nM | 25 nM | 124 nM | – | – | –
4 | Cn1cc2c(c1C(N)=O)CCN(c1ccc(F)cc1)c1ncc(F)cc1-2 [Compound 4005, 9-fluoro-6-(4-fluorophenyl)-2-methyl-2,4,5,6-tetrahydropyrido[2,3-b]pyrrolo[3,4-d]azepin-3-carboxamide] | – | > 10000 nM | > 10000 nM | 550 nM | 163 nM | – | – | –
5 | CCS(=O)(=O)Cc1ccc2c(c1)-c1cn(C)c(=O)cc1CN=C2c1ccc(Cl)cc1 [Compound 4011, 7-(4-chlorophenyl)-10-((ethylsulfone)methyl)-2-methyl-2,5-dihydro-3H-benzo[c]pyrido[3,4-e]Azazale-3-ketone] | 1127.52 min | 59 nM | 65 nM | 4 nM | 4 nM | 1056.88 min | 5.16 mL/min/kg | 1.54 mL/min/kg
6 | Cn1cc2c(c1C#N)CC(=O)N(c1ccc(F)cc1)c1ccc(CS(C)(=O)=O)cc1-2 [Compound 4003, 6-(4-Fluorophenyl)-2-methyl-9-(methylsulfonemethyl)-5-oxo-2,4,5,6-tetrahydrobenzo[b]pyrrolo[3,4-d]azepin-3-nitrile] | – | 2040 nM | 1550 nM | 16 nM | 148 nM | – | – | –
